Experimental data from patent US20260234147A1 (priority 2023, published 2026).
Like-named read-outs stand apart in the source and are kept apart here.

Legend:
hMOR = hMOR (Homo sapiens, UniProt P35372); test: Radioligand binding assay (Eurofins Cerep), [3H]DAMGO displacement
α2C adrenergic receptor = biological target: T1, α2C adrenergic receptor (Homo sapiens, UniProt P18825); test: Radioligand binding assay (Eurofins Cerep), [3H]RX 821002 displacement
T1 construct: Eurofins Cerep (contract screening)
T1 sequence (P18825 1-462): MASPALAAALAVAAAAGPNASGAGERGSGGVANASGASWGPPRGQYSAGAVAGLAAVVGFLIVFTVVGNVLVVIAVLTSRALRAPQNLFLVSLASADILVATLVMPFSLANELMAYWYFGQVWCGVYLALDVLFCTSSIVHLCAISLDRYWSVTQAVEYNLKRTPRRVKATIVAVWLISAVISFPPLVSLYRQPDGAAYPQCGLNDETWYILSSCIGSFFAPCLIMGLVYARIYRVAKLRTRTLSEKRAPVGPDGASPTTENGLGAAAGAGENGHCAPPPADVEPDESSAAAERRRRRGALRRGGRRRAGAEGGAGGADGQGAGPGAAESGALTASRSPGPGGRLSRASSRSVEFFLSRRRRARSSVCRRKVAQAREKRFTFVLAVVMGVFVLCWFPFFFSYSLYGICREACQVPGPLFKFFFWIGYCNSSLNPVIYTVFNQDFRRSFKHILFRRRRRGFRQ

hDOR = hDOR (Homo sapiens, UniProt P41143); test: Radioligand binding assay (Eurofins Cerep), [3H]DADLE displacement
Chain of hDOR (P41143 whole entry): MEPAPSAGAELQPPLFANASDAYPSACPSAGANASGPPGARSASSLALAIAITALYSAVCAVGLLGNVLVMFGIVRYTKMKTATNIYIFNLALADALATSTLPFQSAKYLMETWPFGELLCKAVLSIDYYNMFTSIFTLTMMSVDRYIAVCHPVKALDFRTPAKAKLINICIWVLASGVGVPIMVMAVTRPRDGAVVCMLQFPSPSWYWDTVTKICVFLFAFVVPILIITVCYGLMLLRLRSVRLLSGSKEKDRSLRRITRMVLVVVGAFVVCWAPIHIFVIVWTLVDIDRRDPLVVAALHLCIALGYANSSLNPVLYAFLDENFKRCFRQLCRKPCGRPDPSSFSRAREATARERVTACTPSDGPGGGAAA

α2A adrenergic receptor = biological target: T2, α2A adrenergic receptor (Homo sapiens, UniProt P08913); test: Radioligand binding assay (Eurofins Cerep), [3H]RX 821002 displacement
T2 construct: Eurofins Cerep (contract screening)
T2 sequence (P08913 1-465): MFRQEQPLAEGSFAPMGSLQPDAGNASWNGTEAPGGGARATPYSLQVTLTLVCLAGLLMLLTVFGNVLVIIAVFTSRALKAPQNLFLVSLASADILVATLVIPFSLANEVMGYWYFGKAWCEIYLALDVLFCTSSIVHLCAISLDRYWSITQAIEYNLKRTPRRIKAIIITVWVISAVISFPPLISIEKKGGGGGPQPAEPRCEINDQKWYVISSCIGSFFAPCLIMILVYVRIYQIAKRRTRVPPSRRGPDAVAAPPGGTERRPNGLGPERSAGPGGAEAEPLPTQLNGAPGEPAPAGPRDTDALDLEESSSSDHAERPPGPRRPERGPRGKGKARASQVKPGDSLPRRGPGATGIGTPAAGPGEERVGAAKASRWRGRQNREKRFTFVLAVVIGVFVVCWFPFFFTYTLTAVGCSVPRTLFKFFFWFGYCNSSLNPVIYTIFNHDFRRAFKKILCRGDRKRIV

hKOR = hKOR (Homo sapiens, UniProt P41145); test: Radioligand binding assay (Eurofins Cerep), [3H]U69,593 displacement
Chain of hKOR (P41145 whole entry): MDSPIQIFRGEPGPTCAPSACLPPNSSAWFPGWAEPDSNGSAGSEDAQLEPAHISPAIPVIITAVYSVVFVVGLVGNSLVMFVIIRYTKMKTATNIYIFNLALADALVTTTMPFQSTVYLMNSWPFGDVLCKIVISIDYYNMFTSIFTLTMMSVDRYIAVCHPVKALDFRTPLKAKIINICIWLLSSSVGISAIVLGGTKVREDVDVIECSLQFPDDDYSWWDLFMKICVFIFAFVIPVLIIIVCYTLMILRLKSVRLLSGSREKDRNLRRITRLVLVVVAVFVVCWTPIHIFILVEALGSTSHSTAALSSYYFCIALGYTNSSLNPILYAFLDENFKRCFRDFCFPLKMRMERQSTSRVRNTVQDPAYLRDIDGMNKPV

[1] = Table 3-2, 3 independent experiments, read-out: Ki (nM ± SEM) MOR
[2] = Table 3-4, 3 independent experiments, read-out: Ki (nM ± SEM) MOR
[3] = Table 3-6, 3 independent experiments, read-out: Ki (nM ± SEM) MOR
[4] = Table 3-2, 3 independent experiments, read-out: Ki (nM ± SEM) DOR
[5] = Table 3-4, 3 independent experiments, read-out: Ki (nM ± SEM) DOR
[6] = Ki (nM ± SEM) a2A-AR, Table 3-2, 3 independent experiments
[7] = Ki (nM ± SEM) a2A-AR, Table 3-4, 3 independent experiments
[8] = Ki (nM ± SEM) a2A-AR, Table 3-6, 3 independent experiments
[9] = Table 3-2, 3 independent experiments, read-out: Ki (nM ± SEM) KOR
[10] = Table 3-4, 3 independent experiments, read-out: Ki (nM ± SEM) KOR
[11] = Table 3-6, 3 independent experiments, read-out: Ki (nM ± SEM) KOR
[12] = Table B1, mean ± SEM, 3 independent experiments, read-out: MOR Ki ± SEM
[13] = Table B1, mean ± SEM, 3 independent experiments, read-out: Alpha2C Ki ± SEM
[14] = Alpha2A Ki ± SEM (nM), Table B1, mean ± SEM, 3 independent experiments
[15] = Table A4, data summary #2, read-out: DOR Ki ± SEM
[16] = Table A4, data summary #2, read-out: Alpha2A Ki ± SEM
[17] = Table A1, data summary #1, read-out: KOR Ki ± SEM
[18] = Table A4, data summary #2, read-out: KOR Ki ± SEM
[19] = Table A4, data summary #2, read-out: MOR Ki ± SEM
[20] = Alpha2C Ki ± SEM (nM), Table B1, mean ± SEM, 3 independent experiments
[21] = Table B1′, read-out: MOR Ki ± SEM
[22] = Table B1′, read-out: DOR Ki ± SEM
[23] = alpha2A Ki ± SEM (nM), Table B1′
[24] = Table B1′, read-out: KOR Ki ± SEM

Chain of hMOR (P35372 whole entry): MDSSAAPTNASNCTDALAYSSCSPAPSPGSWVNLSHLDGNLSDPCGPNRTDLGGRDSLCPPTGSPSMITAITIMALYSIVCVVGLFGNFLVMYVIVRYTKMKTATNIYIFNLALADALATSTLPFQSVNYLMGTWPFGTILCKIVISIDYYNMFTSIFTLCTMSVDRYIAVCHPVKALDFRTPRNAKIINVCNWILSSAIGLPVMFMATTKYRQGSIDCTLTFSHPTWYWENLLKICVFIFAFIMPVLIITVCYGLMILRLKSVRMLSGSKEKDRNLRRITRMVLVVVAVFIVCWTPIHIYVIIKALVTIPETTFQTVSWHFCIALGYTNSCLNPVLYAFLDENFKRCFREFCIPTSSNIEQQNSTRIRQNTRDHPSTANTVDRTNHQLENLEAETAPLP

## CO/C=C(/C(=O)OC)C1CCN(CCc2c[nH]c3ccccc23)CC1 [Compound 3-23]
hMOR; Table 3-1
  SR: Selectivity Ratio (KiMOR/Kiα2A): 0.61
hMOR; Table 3-1, 3 independent experiments, read-out: Ki (nM ± SEM) MOR
  Ki: 451 ± 108 nM
hMOR; Table 3-2
  SR: Selectivity Ratio (KiMOR/Kiα2A): 0.61
hMOR; [1]
  Ki: 451 ± 108 nM
hMOR; Table 3-4
  SR: Selectivity Ratio (KiMOR/Kiα2A): 0.61
hMOR; [2]
  Ki: 451 ± 108 nM
hMOR; Table 3-5
  SR: Selectivity Ratio (KiMOR/Kiα2A): 0.61
hMOR; Table 3-5, 3 independent experiments, read-out: Ki (nM ± SEM) MOR
  Ki: 451 ± 108 nM
hMOR; Table 3-6
  SR: Selectivity Ratio (KiMOR/Kiα2A): 0.61
hMOR; [3]
  Ki: 451 ± 108 nM
α2C adrenergic receptor; Ki (nM ± SEM) a2C-AR, Table 3-1, 3 independent experiments
  Ki: 830 ± 268 nM
α2C adrenergic receptor; Ki (nM ± SEM) a2C-AR, Table 3-2, 3 independent experiments
  Ki: 830 ± 268 nM
α2C adrenergic receptor; Ki (nM ± SEM) a2C-AR, Table 3-4, 3 independent experiments
  Ki: 830 ± 268 nM
α2C adrenergic receptor; Ki (nM ± SEM) a2C-AR, Table 3-5, 3 independent experiments
  Ki: 830 ± 268 nM
α2C adrenergic receptor; Ki (nM ± SEM) a2C-AR, Table 3-6, 3 independent experiments
  Ki: 135 ± 12.5 nM
hDOR; Table 3-1, 3 independent experiments, read-out: Ki (nM ± SEM) DOR
  Ki: > 10000 nM
hDOR; [4]
  Ki: > 10000 nM
hDOR; [5]
  Ki: > 10000 nM
hDOR; Table 3-5, 3 independent experiments, read-out: Ki (nM ± SEM) DOR
  Ki: > 10000 nM
hDOR; Table 3-6, 3 independent experiments, read-out: Ki (nM ± SEM) DOR
  Ki: > 10000 nM
α2A adrenergic receptor; Ki (nM ± SEM) a2A-AR, Table 3-1, 3 independent experiments
  Ki: 741 ± 19.3 nM
α2A adrenergic receptor; [6]
  Ki: 741 ± 19.3 nM
α2A adrenergic receptor; [7]
  Ki: 741 ± 19.3 nM
α2A adrenergic receptor; [8]
  Ki: 741 ± 19.3 nM
α2A adrenergic receptor; Ki (nM ± SEM) a2A-ar, Table 3-5, 3 independent experiments
  Ki: 741 ± 19.3 nM
hKOR; Table 3-1, 3 independent experiments, read-out: Ki (nM ± SEM) KOR
  Ki: 3670 ± 1260 nM
hKOR; [9]
  Ki: 3670 ± 1260 nM
hKOR; [10]
  Ki: 3670 ± 1260 nM
hKOR; Table 3-5, 3 independent experiments, read-out: Ki (nM ± SEM) KOR
  Ki: 3670 ± 1260 nM
hKOR; [11]
  Ki: 3670 ± 1260 nM

## COC(=O)C=C1CCN2CCC(O)(c3ccccc3OC)CC2C1 (single isomer, unassigned) [SG-01-005A]
hMOR; [12]
  Ki: > 10000 nM
α2C adrenergic receptor; [13]
  Ki: 489 ± 83.4 nM
α2A adrenergic receptor; [14]
  Ki: 1000 ± 254 nM

## COC(=O)C=C1CCN2CCC(O)(c3ccccc3OC)CC2C1 (centres unmarked) [SG-01-005, Methyl 2-(8-hydroxy-8-(2-methoxyphenyl)dihydro-1H-quinolizin-2(6H,7H,8H,9H, 9aH)-ylidene)acetate]
hMOR; [12]
  Ki: > 10000 nM
α2C adrenergic receptor; [13]
  Ki: 129 ± 37.9 nM
α2A adrenergic receptor; [14]
  Ki: 264 ± 16 nM

## C#CCCN1CCC(O)(c2ccccc2OC)CC1 [SG-01-003, 1-(but-3-ynyl)-4-(2-methoxyphenyl)piperidin-4-ol]
hMOR; [12]
  Ki: > 10000 nM
hMOR; binding screen of intermediates
  selectivity between MOR and α 2A: not selective towards both receptors
α2C adrenergic receptor; [13]
  Ki: > 10000 nM
α2A adrenergic receptor; [14]
  Ki: 5750 ± 1170 nM

## CC[C@@H]1CN2CC[C@@]3(O)C(=Nc4cccc(OC)c43)[C@@H]2C[C@@H]1/C(=C\OC)C(=O)OC [7-Hydroxy Mitragynine, reference compound]
α2C adrenergic receptor; Table A1, data summary #1, read-out: Alpha2C Ki ± SEM
  Ki: > 10000 nM
hDOR; Table A1, data summary #1, read-out: DOR Ki ± SEM
  Ki: 243 nM
hDOR; [15]
  Ki: 243 nM
α2A adrenergic receptor; Table A1, data summary #1, read-out: Alpha2A Ki ± SEM
  Ki: > 10000 nM
α2A adrenergic receptor; [16]
  Ki: > 10000 nM
hKOR; [17]
  Ki: 450 nM
hKOR; [18]
  Ki: 450 nM

## COC(=O)CC1CCN(CCc2c[nH]c3cc(OC)ccc23)CC1 [Compound 3-40]
hMOR; [1]
  Ki: > 10000 nM
hDOR; [4]
  Ki: > 10000 nM
α2A adrenergic receptor; [6]
  Ki: 2840 ± 599 nM
hKOR; [9]
  Ki: > 10000 nM

## [2H]C([2H])([2H])N(C(=O)/C(=C/OC)[C@H]1C[C@H]2c3[nH]c4cccc(OC)c4c3CCN2C[C@H]1CC)C([2H])([2H])[2H] [SUSM-566]
hMOR; [19]
  Ki: 330 ± 28 nM
hDOR; DOR Ki ± SEM (nM), Table A4, data summary #2
  Ki: 8300 ± 3300 nM
α2A adrenergic receptor; Alpha2A Ki ± SEM (nM), Table A4, data summary #2
  Ki: 1960 ± 535 nM
hKOR; [18]
  Ki: 1800 ± 251 nM

## COC=C(C(=O)OC)C1CCN(Cc2ccccc2)CC1 [Compound 3-50]
hMOR; [2]
  Ki: > 10000 nM
hDOR; [5]
  Ki: > 10000 nM
α2A adrenergic receptor; [7]
  Ki: > 10000 nM
hKOR; [10]
  Ki: 5700 ± 558 nM

## COC(=O)C=C1CCN2CCC(O)(c3ccccc3OC)CC2C1 (single isomer, unassigned) [SG-01-005B]
hMOR; [12]
  Ki: > 10000 nM
α2C adrenergic receptor; [20]
  Ki: 46.7 ± 4.04 nM
α2A adrenergic receptor; [14]
  Ki: 110 ± 8 nM

## CC[C@@H]1CN2CCc3c([nH]c4cccc(OC)c34)[C@@H]2C[C@@H]1/C(=C\OC)C(=O)n1cccc1 [SUSM-526]
hMOR; Table A1, data summary #1, read-out: MOR Ki ± SEM
  Ki: 2160 ± 941 nM
hMOR; [19]
  Ki: 719 ± 414 nM
hMOR; read-out: Ki at hMOR / opioid binding (converted)
  Ki: 21600 nM
hDOR; [15]
  Ki: > 10000 nM
α2A adrenergic receptor; [16]
  Ki: > 10000 nM
hKOR; [17]
  Ki: 5800 ± 1390 nM
hKOR; [18]
  Ki: > 10000 nM
hKOR; read-out: Ki at hKOR
  Ki: 57900 nM

## COC(=O)CC1CCN2CCC(O)(c3ccccc3OC)CC2C1 (centres unmarked) [SG-01-006, Methyl 2-(8-hydroxy-8-(2-methoxyphenyl)octahydro-1H-quinolizin-2-yl)acetate]
hMOR; [12]
  Ki: > 10000 nM
α2C adrenergic receptor; [13]
  Ki: 139 ± 20.3 nM
α2A adrenergic receptor; [14]
  Ki: 376 ± 72.2 nM

## COC(=O)CC1CCN2CCC(O)(c3ccccc3OC)CC2C1 (single isomer, unassigned)
hMOR; [21]
  Ki: > 10000 nM
hDOR; [22]
  Ki: > 10000 nM
α2A adrenergic receptor; [23]
  Ki: 3470 ± 1790 nM
hKOR; [24]
  Ki: > 10000 nM

## COC(=O)CC1CCN2CCC(c3ccccc3OC)CC2C1 (centres unmarked) [SG-01-008, Methyl 2-(8-(2-methoxyphenyl)octahydro-1H-quinolizin-2-yl)acetate]
hMOR; [12]
  Ki: > 10000 nM
α2C adrenergic receptor; [20]
  Ki: 13.6 ± 0.828 nM
α2A adrenergic receptor; Table B1, mean ± SEM, 3 independent experiments, read-out: Alpha2A Ki ± SEM
  Ki: 27.9 ± 3.05 nM

## COC=C(C(=O)OC)C1CCN(CCc2c[nH]c3c(OC)cccc23)CC1 [Compound 3-41]
hMOR; Table 3-2
  SR: Selectivity Ratio (KiMOR/Kiα2A): 1.04
hMOR; [1]
  Ki: 5130 ± 8.35 nM
hDOR; [4]
  Ki: > 10000 nM
α2A adrenergic receptor; [6]
  Ki: 4900 ± 829 nM
hKOR; [9]
  Ki: > 10000 nM

## COC(=O)CN1CCN(CCc2c[nH]c3ccccc23)CC1 [Compound 3-66]
hMOR; Table 3-6
  SR: Selectivity Ratio (KiMOR/Kiα2A): 0.21
hMOR; [3]
  Ki: 2030 ± 694 nM
hDOR; Ki (nM ± SEM) DOR, Table 3-6, 3 independent experiments
  Ki: > 10000 nM
α2A adrenergic receptor; [8]
  Ki: 9760 ± 4830 nM
hKOR; [11]
  Ki: > 10000 nM

## COC(=O)C=C1CCN2CCC(O)(c3ccccc3)CC2C1 (centres unmarked) [drawing 176]
hMOR; [21]
  Ki: > 10000 nM
hDOR; [22]
  Ki: > 10000 nM
α2A adrenergic receptor; [23]
  Ki: 155 ± 65 nM
hKOR; [24]
  Ki: 7660 ± 2670 nM

## COc1ccccc1C1(O)CCN2CCC(=O)CC2C1 (centres unmarked)
hMOR; [21]
  Ki: > 10000 nM
hDOR; [22]
  Ki: > 10000 nM
α2A adrenergic receptor; [23]
  Ki: 5750 ± 1170 nM
hKOR; [24]
  Ki: > 10000 nM
